The CheMixHub drug solubility set

Experiment: xn = mol fraction of the nth substance listed, in the solute-free solvent

CCOC(=O)OC1=C(c2cc(C)ccc2C)C(=O)NC12CCC(OC)CC2 (centres undefined) + CO + O
solubility (g/100 g solution)
Conditions | 278.15 K | 283.15 K | 288.15 K | 293.15 K | 298.15 K | 303.15 K | 308.15 K | 313.15 K | 318.15 K
x2 = 0.2 | 0.00416 | 0.0064 | 0.0104 | 0.0162 | 0.0253 | 0.0409 | 0.0592 | 0.0833 | 0.132
x2 = 0.4 | 0.292 | 0.365 | 0.473 | 0.613 | 0.803 | 1.07 | 1.44 | 1.9 | 2.64
x2 = 0.6 | 1.47 | 1.82 | 2.22 | 2.8 | 3.56 | 4.5 | 5.89 | 7.65 | 9.83
x2 = 0.8 | 3.55 | 4.27 | 5.22 | 6.38 | 8.03 | 10.1 | 12.7 | 15.7 | 19.2

c1ccc(-c2ccc(C(c3ccccc3)n3ccnc3)cc2)cc1 (centres undefined) + CO + O
solubility (g/100 g solution)
Conditions | 278.15 K | 283.15 K | 288.15 K | 293.15 K | 298.15 K | 303.15 K | 308.15 K | 313.15 K | 318.15 K
x2 = 0.05881 | 0.0843 | 0.114 | 0.153 | 0.198 | 0.236 | 0.32 | 0.418 | 0.51 | 0.631
x2 = 0.1233 | 0.301 | 0.4 | 0.525 | 0.671 | 0.792 | 1.05 | 1.35 | 1.63 | 1.98
x2 = 0.1942 | 0.641 | 0.845 | 1.1 | 1.39 | 1.74 | 2.21 | 2.78 | 3.35 | 3.94
x2 = 0.2727 | 0.98 | 1.28 | 1.66 | 2.1 | 2.5 | 3.23 | 4.06 | 4.89 | 5.86
x2 = 0.3599 | 1.23 | 1.68 | 2.17 | 2.73 | 3.35 | 4.17 | 5.19 | 6.23 | 7.39
x2 = 0.4576 | 1.42 | 1.87 | 2.41 | 3.07 | 3.72 | 4.76 | 5.94 | 7.21 | 8.64
x2 = 0.5675 | 1.6 | 2.11 | 2.72 | 3.56 | 4.38 | 5.54 | 6.87 | 8.37 | 9.89
x2 = 0.6923 | 1.81 | 2.39 | 3.08 | 3.95 | 4.89 | 6.2 | 7.71 | 9.46 | 11.3
x2 = 0.835 | 2.04 | 2.8 | 3.67 | 4.72 | 5.88 | 7.29 | 8.87 | 10.8 | 12.9

Cc1ncc(CO)c(CO)c1O.Cl + O + CC#N
solubility (g/100 g solution)
Conditions | 278.15 K | 283.15 K | 288.15 K | 293.15 K | 298.15 K | 303.15 K | 308.15 K | 313.15 K
x2 = 0.3 | 0.681 | 0.776 | 0.889 | 1.02 | 1.16 | 1.3 | 1.47 | 1.67
x2 = 0.4 | 2.06 | 2.27 | 2.65 | 2.92 | 3.32 | 3.7 | 4.04 | 4.51
x2 = 0.5 | 3.81 | 4.09 | 4.73 | 5.11 | 5.79 | 6.6 | 7.19 | 8.12
x2 = 0.6 | 5.82 | 6.51 | 7.44 | 8.31 | 9.5 | 10.3 | 11.2 | 12.6
x2 = 0.7 | 8.18 | 9.25 | 10.4 | 11.8 | 13.4 | 14.2 | 15.5 | 17.9
x2 = 0.8 | 10.6 | 11.9 | 13.4 | 15.2 | 16.6 | 18.3 | 20 | 23.4
x2 = 0.9 | 11.5 | 13.3 | 14.6 | 17 | 18.6 | 20.7 | 22.7 | 26.3

Cc1ncc(CO)c(CO)c1O.Cl + O + CC(C)O
solubility (g/100 g solution)
Conditions | 278.15 K | 283.15 K | 288.15 K | 293.15 K | 298.15 K | 303.15 K | 308.15 K | 313.15 K
x2 = 0.3 | 0.401 | 0.512 | 0.632 | 0.825 | 1.01 | 1.26 | 1.54 | 1.89
x2 = 0.4 | 0.684 | 0.867 | 1.11 | 1.47 | 1.84 | 2.34 | 2.86 | 3.53
x2 = 0.5 | 1.35 | 1.72 | 2.2 | 2.8 | 3.42 | 4.25 | 5.16 | 6.25
x2 = 0.6 | 2.56 | 3.18 | 3.92 | 4.83 | 5.89 | 7.02 | 8.34 | 9.79
x2 = 0.7 | 3.45 | 4.36 | 5.42 | 6.76 | 8.29 | 10.1 | 12 | 14.3
x2 = 0.8 | 4.83 | 6.11 | 7.62 | 9.29 | 11.3 | 13.4 | 15.8 | 18.8
x2 = 0.9 | 7.31 | 8.78 | 10.7 | 12.7 | 14.4 | 16.6 | 19.7 | 23.9

Cl.N=C(N)NC(=N)N1CCOCC1 + O + CC(C)O
solubility (g/100 g solution)
Conditions | x2 = 0.1 | x2 = 0.2 | x2 = 0.3 | x2 = 0.4 | x2 = 0.5 | x2 = 0.6 | x2 = 0.7 | x2 = 0.8 | x2 = 0.9
283.15 K | 0.441 | 0.892 | 2.04 | 4.24 | 8.16 | 13.2 | 19.8 | 25.8 | 35
293.15 K | 0.499 | 1.2 | 2.75 | 5.73 | 10.6 | 15.4 | 23.9 | 30.8 | 37.5
303.15 K | 0.607 | 1.51 | 3.56 | 7.55 | 13.8 | 20.6 | 29.6 | 36.8 | 44.3
313.15 K | 0.831 | 1.73 | 4.8 | 9.86 | 17.4 | 23.7 | 34.9 | 42.9 | 50.8
323.15 K | 1.11 | 2.09 | 5.83 | 12.6 | 21.2 | 30 | 39.1 | 45.7 | 55.9
